Results as given in patent US20060052387A1, “Organic compounds” (priority 2002, published 2006).
Like-named read-outs stand apart in the source and are kept apart here.

Key:
[1] = tested on: M-CSF-stimulated human monocytes; details: for numbers of viable cells after the incubation period / numbers of viable cells after the incubation period, Mean: M-CSF 20 ng/mL + DMSO, 24 hours; for numbers of viable cells after the incubation period, Mean: Mean of 3 experiments
Akt = details: SALT I 1 or 5 NM (so in the source); M-CSF 100 ng/mL for three minutes
Procedure: Akt1 also called protein kinase B is a serine/threonine kinase involved in a signaling pathway activated by the Bcr-Ab1 activity. Phosphorylated Akt1 phosphorylates cellular proteins and promotes cell proliferation and cell survival.
In vitro Akt kinase assays were performed as described in Kelley et al., supra. Briefly, monocytes were incubated overnight with M-CSF (20 ng/mL), serum-starved for 1.5 hours. […] Akt protein was immunoprecipitated from the cell lysate. The blot was probed with anti-phospho-threonine-Akt, stripped and re-probed for total Akt.

[2] = tested on: Caspase-3 activity in M-CSF-stimulated human monocytes; details: M-CSF 20 ng/mL + DMSO, 18 hours
From the text: Caspase-3 is a cysteine aspartate protease involved in the cascade leading to DNA fragmentation. Caspase-3 cleaves one subunit of a dimer called DNA fragmentation factor (DFF) at a tetrapeptide sequence DEVD, the other subunit then activates a nuclease that degrades DNA. […] Caspase-3 activity is defined as the amount of free amino trifluoromethylcoumarin (AFC) released from the caspase-3 selective fluorosubstrate DEVD-AFC measured by fluorometry. In the following table, caspase activity is given in pmol/min/mg.

SMILES: CS(=O)(=O)O.Cc1ccc(NC(=O)c2ccc(CN3CCN(C)CC3)cc2)cc1Nc1nccc(-c2cccnc2)n1 [SALT I]
- numbers of viable cells after the incubation period ([1]; Experiment 1, SALT I 1 pM (so in the source)): 130
- numbers of viable cells after the incubation period ([1]; Experiment 1, SALT I 5 pM (so in the source)): 156
- numbers of viable cells after the incubation period ([1]; Experiment 1, SALT I 10 pM (so in the source)): 138
- numbers of viable cells after the incubation period ([1]; Experiment 1, SALT I 50 pM (so in the source)): 46
- numbers of viable cells after the incubation period ([1]; Experiment 1, SALT I 100 pM (so in the source)): 15
- numbers of viable cells after the incubation period ([1]; Experiment 2, SALT I 1 pM (so in the source)): 79
- numbers of viable cells after the incubation period ([1]; Experiment 2, SALT I 5 pM (so in the source)): 47
- numbers of viable cells after the incubation period ([1]; Experiment 2, SALT I 10 pM (so in the source)): 46
- numbers of viable cells after the incubation period ([1]; Experiment 2, SALT I 50 pM (so in the source)): 7
- numbers of viable cells after the incubation period ([1]; Experiment 2, SALT I 100 pM (so in the source)): 11
- numbers of viable cells after the incubation period ([1]; Experiment 3, SALT I 1 pM (so in the source)): 143
- numbers of viable cells after the incubation period ([1]; Experiment 3, SALT I 5 pM (so in the source)): 75
- numbers of viable cells after the incubation period ([1]; Experiment 3, SALT I 10 pM (so in the source)): 58
- numbers of viable cells after the incubation period ([1]; Experiment 3, SALT I 50 pM (so in the source)): 36
- numbers of viable cells after the incubation period ([1]; Experiment 3, SALT I 100 pM (so in the source)): 16
- number of monocytes surviving at 18 hours (in words) ([1]; M-CSF stimulated monocytes, 18 hours): reduces
- numbers of viable cells after the incubation period, Mean ([1]; SALT I 1 pM (so in the source)): 117
- numbers of viable cells after the incubation period, Mean ([1]; SALT I 5 pM (so in the source)): 93
- numbers of viable cells after the incubation period, Mean ([1]; SALT I 10 pM (so in the source)): 81
- numbers of viable cells after the incubation period, Mean ([1]; SALT I 50 pM (so in the source)): 30
- numbers of viable cells after the incubation period, Mean ([1]; SALT I 100 pM (so in the source)): 14
- Akt phosphorylation (in words) (Akt): Decreases
- caspase activity ([2]; Donor 1, SALT I 0.1 pM (so in the source)): 156 pmol/min/mg
- caspase activity ([2]; Donor 1, SALT I 1 pM (so in the source)): 356 pmol/min/mg
- caspase activity ([2]; Donor 1, SALT I 5 pM (so in the source)): 573 pmol/min/mg
- caspase activity ([2]; Donor 1, SALT I 10 pM (so in the source)): 629 pmol/min/mg
- caspase activity ([2]; Donor 2, SALT I 0.1 pM (so in the source)): 220 pmol/min/mg
- caspase activity ([2]; Donor 2, SALT I 1 pM (so in the source)): 299 pmol/min/mg
- caspase activity ([2]; Donor 2, SALT I 5 pM (so in the source)): 329 pmol/min/mg
- caspase activity ([2]; Donor 2, SALT I 10 pM (so in the source)): 407 pmol/min/mg
